Patent US20090292021A1, “ANTICONVULSIVE PHARMACEUTICAL COMPOSITIONS” (INSERM (INSTITUT NATIONAL DE LA SANTE ET DE LA REC, priority 2006, published 2009)

Experiments:
Assay type in all cases: in vivo, rat
Wistar rats [1] = assay: Length of disorganized outer retina on DAPI-stained retinal sections; settings: treatment of 45 days, mean ± S.E.M, n=8
Procedure: (§1) As described previously Duboc, A., Hanoteau, N., Simonutti, M., Rudolf, G., Nehlig, A., Sahel, J. A., Picaud, S. (2004). “Vigabatrin, the GABA-transaminase inhibitor, damages cone photoreceptors in rats.” Annals of Neurology 55(5): 695-705), Wistar rats Rj Wi IOPS Han were purchased from Janvier Breeding Center (Le Genest St Isle, France) at 7 weeks and acclimatised for 2 weeks. VGB was dissolved in 0.9% NaCl at a concentration of 125 mg/ml. It was injected daily and intraperitonealy at a final dose of 250 mg/kg. To investigate the progression of visual defects with the treatment duration, rats of the same age were divided in five groups and treated with the drug for different times as described in table 1 hereunder.
(§2) After the animal sacrifice, the cornea was branded at the upper side to orient the eye cup. The eyes were dissected, the cornea and lens removed and a nick was made on the upper side of the eye cup. Eye cups were embedded in OCT (Labonord, Villeneuve d'Ascq, France) to prepare cryosection (Duboc et al 2004, Supra). Dorso-ventral retinal sections passing through the optic nerve were stained with Diamidi-phenyl-indole (DAPI). […] The retinal length showing displaced photoreceptor nuclei was measured on both part of the optic nerve on the retina of VGB-treated rat.

Wistar rats [2] = assay: VEGF immunolabeling of retinal sections; settings: VGB-treated vs control animals
Procedure: as §1
as §2, with “rat. […]” for “rat.”

Wistar rats [3] = assay: Immunolabeling of retinal sections: cone arrestin (cone count) and G0α (ON bipolar cells); settings: treated for 45 days
Procedure: as §1
After the animal sacrifice, the cornea was branded at the upper side to orient the eye cup. The eyes were dissected, the cornea and lens removed and a nick was made on the upper side of the eye cup. Eye cups were embedded in OCT (Labonord, Villeneuve d'Ascq, France) to prepare cryosection (Duboc et al 2004, Supra). Dorso-ventral retinal sections passing through the optic nerve were stained with Diamidi-phenyl-indole (DAPI). The DAPI-nuclear staining was visualized on a Leica microscope (20× objective) and digitalized on a camera coupled to optical image analysis software (Analysis program). The retinal length showing displaced photoreceptor nuclei was measured on both part of the optic nerve on the retina of VGB-treated rat.
For immunolabeling, the oriented retinal sections were permeabilized for 5 minutes in PBS containing 0.1% Triton X-100 (Sigma, St Louis, Mo.), rinsed and incubated in PBS containing 1% bovine serum albumin (Eurobio, Les-Ulis, France), 0.1% Tween 20 (Sigma) and 0.1% sodium azide (Merck, Fontenay-Sous-Bois) for 2 hours at room temperature. The primary antibodies added to the solution were incubated for 2 hours at room temperature. Antibodies used were the anti-VEGF rabbit polyclonal antibody (1:400, Ab-1, NeoMarkers, Interchim, France), the monoclonal anti-vimentin antibody (1:400, cloneV9, DAKO, France), the polyclonal mCAR antibody (1:10,000; a gift from Dr Cheryl Craft (Keck School of Medicine of the University of Southern California, Los Angeles, USA)), and the monoclonal anti-G0-α antibody (1:500, Chemicon). After several washes, sections were incubated with the secondary antibodies, goat anti-rabbit IgG conjugated to Alexa TM 594 and goat anti-mouse IgG conjugated to Alexa TM 488 (1:500, (Molecular Probes, Eugene, Oreg.) for 2 hours. The nuclear dye, DAPI, was added in an incubation solution. Sections were mounted with the Fluorsave reagent (Calbiochem, San Diego, Calif.).

Wistar rats [4] = assay: Exploration of eye fundus with scanning laser ophthalmoscope (SLO)
Procedure: as §1
Examination of the eye fundus was performed with a Scanning Laser Opthalmoscope (SLO) (HRA, Heidelberg, Dossenheim, Allemagne). Pupils were dilated with a drop of 0.5% tropicamide. During the examination an experimenter hold the animal to point the eye in the axis of camera. To limit animal stress, the duration of examination was minimized and these short sequences were alternated with rests periods. Eye fundus in each animal eye was examined in unanaesthetized rats with the 534 nm laser light beam using a filter to decrease its intensity. Fundus autofluorescence was obtained with the 488 nm laser beam.

Wistar rats [5] = assay: Indocyanine green (ICG) angiography of choroidal vessels
Procedure: as §1
For ICG angiography, animals were anesthetized as above. A solution of Infracyanine (0.1 ml, 5 mg/ml, Société d'Etude et de Recherche Biologiques, Paris, France) dissolved in distilled water was injected intravenously. Images were obtained with the 795 nm laser light immediately after the injection.

Wistar rats [6] = assay: Flicker ERG recording in VGB-treated rats; settings: for decrease of flicker ERG amplitude: vs before treatment
Procedure: as §1
Flicker ERGs were recorded on each animal before the treatment, at the end of the VGB treatment, and 4-day later. For the study of functional recovery after VGB withdrawal, flicker ERGs were recorded before the treatment, at 35-day of treatment, 16-day recovery and 60-day recovery period.
Animals were kept in the dark room for at least 12 hours and handled under dim red light. They were anaesthetized by an intraperitoneal (i.p) injection (1 to 1.5 ml/kg) of a solution containing ketamine (40 mg/ml) and xylazine (4 mg/ml Rompum). Pupils were dilated with a drop of 0.5% tropicamide, and the cornea was locally anaesthetized with a drop of 0.4% chlorhydrate d'oxybupropacaïne. Measurements were obtained from the right eye of animals laid on a temperature controlled blanket. The measuring electrode, a gold ring covered with a plastic contact lens, was placed on the cornea and a tight electrical contact was obtained by addition of methylcellulose. The reference and ground electrodes made from needles were subcutaneously inserted at the head and the tail respectively. Finally, the whole animal was placed in a Ganzfeld bowl delivering light stimuli (Toennies Multiliner Vision, Höchberg, Germany). For flickering ERG measurements, animals were adapted for 10 minutes to a white background light at a 25 cdm^−2 to suppress rod responses. Flicker responses were obtained with 50 white light flashes at a 2.5 cdsm^−2 intensity and a 15 Hz flickering frequency (High pass filter 1 Hz and low pass filter 300 Hz). Amplitude and implicit time responses of the flicker ERG were measured at the first maximum positive peak with respect to the light onset.

length of disorganized outer retina, lower pole (Wistar rats [1]): 70 μm
length of disorganized outer retina, upper pole (Wistar rats [1]): 1106 μm
VEGF expression in retina (Müller glial cells) (Wistar rats [2]): increase in VEGF expression
cone morphology, cone arrestin labelling (Wistar rats [3]): many cones were observed to be truncated
decrease in density of cones vs control rats (Wistar rats [3]; cone arrestin immunolabeling): 18.7%
density of cones (Wistar rats [3]; cone arrestin immunolabeling, n=7): 12.34±0.36 cells/300 μm
modified retinal areas at eye fundus, SLO (Wistar rats [4]; after arresting the VGB treatment for one month (n=2)): remained visible
modified retinal areas (dark/grey network) at eye fundus, green laser SLO (Wistar rats [4]; after treatment of 25 days (n=4), 35 days (n=1) and 55 days (n=4)): present in all animals examined
modified retinal areas at eye fundus, SLO (Wistar rats [4]; animals treated for 5 days (n=1) or 11 days (n=3)): No such modified areas were detected
ICG fluorescence in areas showing modified eye fundus after extravasation (Wistar rats [5]; animals treated for 55 days): inhomogeneous fluorescent image
flicker ERG amplitude (Wistar rats [6]; 15-day treatment, after 4-day recovery period): 51 μV
flicker ERG amplitude (Wistar rats [6]; 25-day treatment, after 4-day recovery period): 38 μV
flicker ERG amplitude (Wistar rats [6]; 35-day treatment, after 4-day recovery period): 50 μV
flicker ERG amplitude (Wistar rats [6]; end of 5-day treatment, 250 mg/kg daily i.p.): 83 μV
flicker ERG amplitude (Wistar rats [6]; end of 15-day treatment, 250 mg/kg daily i.p.): 52 μV
decrease of flicker ERG amplitude (Wistar rats [6]; end of 15-day treatment): 45%
flicker ERG amplitude (Wistar rats [6]; end of 25-day treatment, 250 mg/kg daily i.p.): 21 μV
decrease of flicker ERG amplitude (Wistar rats [6]; end of 25-day treatment): 79%
flicker ERG amplitude (Wistar rats [6]; end of 35-day treatment, 250 mg/kg daily i.p.): 29 μV
decrease of flicker ERG amplitude (Wistar rats [6]; end of 35-day treatment): 71%
flicker ERG amplitude (Wistar rats [6]; recovery study, 35-day treatment, 16-day recovery): 84 μV
reduction of flicker ERG (Wistar rats [6]; recovery study, 35-day treatment, 16-day recovery, vs value before treatment): 31%
flicker ERG amplitude (Wistar rats [6]; recovery study, 35-day treatment, 60-day recovery): 88 μV
reduction of flicker ERG (Wistar rats [6]; recovery study, 35-day treatment, 60-day recovery, vs value before treatment): 28%
flicker ERG amplitude (Wistar rats [6]; recovery study, 35-day treatment, immediately after treatment, n=6): 51 μV
reduction of flicker ERG (Wistar rats [6]; recovery study, 35-day treatment, immediately after treatment, vs beginning of experiment): 58%
Structure (SMILES): C=CC(N)CCC(=O)O (centres unmarked) [VGB, 4-amino-5-hexenoic acid]
ON bipolar cells labeled with G0α antibody (Wistar rats [3]): some cells were observed to send a process into the ONL
retinal autofluorescence, SLO (Wistar rats [4]; 488 nm laser, in vivo): fluorescent spots were observed in the modified areas in two rats
size or aspect of the choroidal vasculature (Wistar rats [5]; after treatment of 25 (n=4) and 55 days (n=4)): no change in the size or aspect of the choroidal vasculature could be detected
